In ChEMBL document CHEMBL1255458, “Worldwide experience with the use of doripenem against extended-spectrum-beta-lactamase-producing and ciprofloxacin-resistant Enterobacteriaceae: analysis of six phase 3 clinical studies” (2010):
In brackets after ≈: the same amount, converted by molar mass.

Legend:
Enterobacteriaceae [1] = assay: Antibacterial activity against Enterobacteriaceae by broth microdilution method; assay type: functional
Enterobacteriaceae [2] = assay: Antibacterial activity against extended spectrum beta-lactamase-producing Enterobacteriaceae clinical isolates by broth microdilution method; assay type: functional
Enterobacteriaceae [3] = assay: Antibacterial activity against ciprofloxacin-resistant Enterobacteriaceae clinical isolates by broth microdilution method; assay type: functional
Klebsiella pneumoniae = assay: Antibacterial activity against […] Klebsiella pneumoniae by broth microdilution method; assay type: functional
Enterobacteriaceae [4] = assay: Antibacterial activity against Enterobacteriaceae clinical isolates isolated from patient with urinary tract infection assessed as cure rate at test-of-cure visit; assay type: functional, Urine
Enterobacteriaceae [5] = assay: Antibacterial activity against extended spectrum beta-lactamase-producing Enterobacteriaceae clinical isolates isolated from patient with urinary tract infection assessed as cure rate at test-of-cure visit; assay type: functional, Urine
Enterobacteriaceae [6] = assay: Antibacterial activity against ciprofloxacin-resistant Enterobacteriaceae clinical isolates isolated from patient with urinary tract infection assessed as cure rate at test-of-cure visit; assay type: functional, Urine
Enterobacteriaceae [7] = assay: Antibacterial activity against Enterobacteriaceae clinical isolates isolated from patient with complicated urinary tract infection assessed as cure rate at test-of-cure visit; assay type: functional, Urine
Enterobacteriaceae [8] = assay: Antibacterial activity against extended spectrum beta-lactamase-producing Enterobacteriaceae clinical isolates isolated from patient with complicated urinary tract infection assessed as cure rate at test-of-cure visit; assay type: functional, Urine
Enterobacteriaceae [9] = assay: Antibacterial activity against Enterobacteriaceae clinical isolates isolated from patient with complicated intra-abdominal infection assessed as cure rate at test-of-cure visit; assay type: functional
Enterobacteriaceae [10] = assay: Antibacterial activity against extended spectrum beta-lactamase-producing Enterobacteriaceae clinical isolates isolated from patient with complicated intra-abdominal infection assessed as cure rate at test-of-cure visit; assay type: functional
Enterobacteriaceae [11] = assay: Antibacterial activity against ciprofloxacin-resistant Enterobacteriaceae clinical isolates isolated from patient with complicated intra-abdominal infection assessed as cure rate at test-of-cure visit; assay type: functional
Enterobacteriaceae [12] = assay: Antibacterial activity against Enterobacteriaceae clinical isolates isolated from patient with nosocomial pneumonia assessed as cure rate at test-of-cure visit; assay type: functional
Enterobacteriaceae [13] = assay: Antibacterial activity against extended spectrum beta-lactamase-producing Enterobacteriaceae clinical isolates isolated from patient with nosocomial pneumonia assessed as cure rate at test-of-cure visit; assay type: functional
Enterobacteriaceae [14] = assay: Antibacterial activity against ciprofloxacin-resistant Enterobacteriaceae clinical isolates isolated from patient with nosocomial pneumonia assessed as cure rate at test-of-cure visit; assay type: functional
Enterobacteriaceae [15] = assay: Antibacterial activity against Enterobacteriaceae clinical isolates isolated from patient with urinary tract infection assessed as cure rate at test-of-cure visit by mMITT analysis; assay type: functional, Urine
Enterobacteriaceae [16] = assay: Antibacterial activity against extended spectrum beta-lactamase-producing Enterobacteriaceae clinical isolates isolated from patient with urinary tract infection assessed as cure rate at test-of-cure visit by mMITT analysis; assay type: functional, Urine
Enterobacteriaceae [17] = assay: Antibacterial activity against ciprofloxacin-resistant Enterobacteriaceae clinical isolates isolated from patient with urinary tract infection assessed as cure rate at test-of-cure visit by mMITT analysis; assay type: functional, Urine
Enterobacteriaceae [18] = assay: Antibacterial activity against Enterobacteriaceae clinical isolates isolated from patient with complicated urinary tract infection assessed as cure rate at test-of-cure visit by mMITT analysis; assay type: functional, Urine
Enterobacteriaceae [19] = assay: Antibacterial activity against extended spectrum beta-lactamase-producing Enterobacteriaceae clinical isolates isolated from patient with complicated urinary tract infection assessed as cure rate at test-of-cure visit by mMITT analysis; assay type: functional, Urine
Enterobacteriaceae [20] = assay: Antibacterial activity against ciprofloxacin-resistant Enterobacteriaceae clinical isolates isolated from patient with complicated urinary tract infection assessed as cure rate at test-of-cure visit by mMITT analysis; assay type: functional, Urine
Enterobacteriaceae [21] = assay: Antibacterial activity against Enterobacteriaceae clinical isolates isolated from patient with complicated intra-abdominal infection assessed as cure rate at test-of-cure visit by mMITT analysis; assay type: functional
Enterobacteriaceae [22] = assay: Antibacterial activity against extended spectrum beta-lactamase-producing Enterobacteriaceae clinical isolates isolated from patient with complicated intra-abdominal infection assessed as cure rate at test-of-cure visit by mMITT analysis; assay type: functional
Enterobacteriaceae [23] = assay: Antibacterial activity against ciprofloxacin-resistant Enterobacteriaceae clinical isolates isolated from patient with complicated intra-abdominal infection assessed as cure rate at test-of-cure visit by mMITT analysis; assay type: functional
Enterobacteriaceae [24] = assay: Antibacterial activity against Enterobacteriaceae clinical isolates isolated from patient with nosocomial pneumonia assessed as cure rate at test-of-cure visit by mMITT analysis; assay type: functional
Enterobacteriaceae [25] = assay: Antibacterial activity against extended spectrum beta-lactamase-producing Enterobacteriaceae clinical isolates isolated from patient with nosocomial pneumonia assessed as cure rate at test-of-cure visit by mMITT analysis; assay type: functional
Enterobacteriaceae [26] = assay: Antibacterial activity against ciprofloxacin-resistant Enterobacteriaceae clinical isolates isolated from patient with nosocomial pneumonia assessed as cure rate at test-of-cure visit by mMITT analysis; assay type: functional
Enterobacteriaceae [27] = assay: Antibacterial activity against ciprofloxacin-resistant Enterobacteriaceae clinical isolates isolated from patient with complicated urinary tract infection assessed as cure rate at test-of-cure visit; assay type: functional, Urine

Structure (SMILES): NCC[C@H](O)C(=O)N[C@@H]1C[C@H](N)[C@@H](O[C@H]2O[C@H](CN)[C@@H](O)[C@H](O)[C@H]2O)[C@H](O)[C@H]1O[C@H]1O[C@H](CO)[C@@H](O)[C@H](N)[C@H]1O [AMIKACIN]
- MIC50 (Enterobacteriaceae [1]): 2 µg/mL (≈ 3.42 µM)
- MIC90 (Enterobacteriaceae [1]): 8 µg/mL (≈ 13.7 µM)
- MIC50 (Enterobacteriaceae [2]): 8 µg/mL (≈ 13.7 µM)
- MIC90 (Enterobacteriaceae [2]): > 64 µg/mL
- MIC50 (Enterobacteriaceae [3]): 4 µg/mL (≈ 6.83 µM)

Structure (SMILES): CC(C)(O/N=C(\C(=O)N[C@@H]1C(=O)N2C(C(=O)[O-])=C(C[n+]3ccccc3)CS[C@H]12)c1csc(N)n1)C(=O)O [CEFTAZIDIME]
- MIC50 (Enterobacteriaceae [1]): 0.12 µg/mL (≈ 0.22 µM)
- MIC90 (Enterobacteriaceae [1]): 0.5 µg/mL (≈ 0.915 µM)
- MIC50 (Enterobacteriaceae [2]): 32 µg/mL (≈ 58.5 µM)
- MIC90 (Enterobacteriaceae [2]): > 32 µg/mL
- MIC50 (Enterobacteriaceae [3]): 1 µg/mL (≈ 1.83 µM)
- MIC90 (Enterobacteriaceae [3]): > 32 µg/mL

Structure (SMILES): C[C@@H](O)[C@H]1C(=O)N2C(C(=O)O)=C(S[C@@H]3CN[C@H](CNS(N)(=O)=O)C3)[C@H](C)[C@H]12 [DORIPENEM]
- MIC50 (Klebsiella pneumoniae): ≤ 0.03 µg/mL
- MIC90 (Klebsiella pneumoniae): 0.12 µg/mL (≈ 0.285 µM)
- MIC50 (Enterobacteriaceae [2]): 0.06 µg/mL (≈ 0.143 µM)
- MIC90 (Enterobacteriaceae [2]): 0.25 µg/mL (≈ 0.595 µM)
- MIC50 (Enterobacteriaceae [3]): 0.03 µg/mL (≈ 0.0713 µM)
- MIC90 (Enterobacteriaceae [3]): 0.5 µg/mL (≈ 1.19 µM)
- Activity (Enterobacteriaceae [4]): 82.3%
- Activity (Enterobacteriaceae [5]): 72.7%
- Activity (Enterobacteriaceae [6]): 68.1%
- Activity (Enterobacteriaceae [7]): 83.5%
- Activity (Enterobacteriaceae [8]): 60%
- Activity (Enterobacteriaceae [9]): 84.4%
- Activity (Enterobacteriaceae [10]): 71.4%
- Activity (Enterobacteriaceae [11]): 82.4%
- Activity (Enterobacteriaceae [12]): 69.1%
- Activity (Enterobacteriaceae [13]): 75%
- Activity (Enterobacteriaceae [14]): 70%
- Activity (Enterobacteriaceae [15]): 73.6%
- Activity (Enterobacteriaceae [16]): 66.7%
- Activity (Enterobacteriaceae [17]): 61.9%
- Activity (Enterobacteriaceae [18]): 74.3%
- Activity (Enterobacteriaceae [19]): 50%
- Activity (Enterobacteriaceae [20]): 53.3%
- Activity (Enterobacteriaceae [21]): 77.3%
- Activity (Enterobacteriaceae [22]): 75%
- Activity (Enterobacteriaceae [23]): 83.3%
- Activity (Enterobacteriaceae [24]): 59.6%
- Activity (Enterobacteriaceae [25]): 64.3%

Structure (SMILES): C[C@@H](O)[C@H]1C(=O)N2C(C(=O)O)=C(S[C@@H]3CN[C@H](C(=O)Nc4cccc(C(=O)O)c4)C3)[C@H](C)[C@H]12 [ERTAPENEM]
- MIC50 (Klebsiella pneumoniae): ≤ 0.03 µg/mL
- MIC90 (Klebsiella pneumoniae): ≤ 0.03 µg/mL
- MIC50 (Enterobacteriaceae [2]): 0.12 µg/mL (≈ 0.252 µM)
- MIC90 (Enterobacteriaceae [2]): 1 µg/mL (≈ 2.1 µM)
- MIC50 (Enterobacteriaceae [3]): ≤ 0.03 µg/mL
- MIC90 (Enterobacteriaceae [3]): 4 µg/mL (≈ 8.41 µM)

Structure (SMILES): C[C@@H](O)[C@H]1C(=O)N2C(C(=O)O)=C(SCCNC=N)C[C@H]12 [IMIPENEM ANHYDROUS]
- MIC50 (Klebsiella pneumoniae): 0.12 µg/mL (≈ 0.401 µM)
- MIC90 (Klebsiella pneumoniae): 1 µg/mL (≈ 3.34 µM)
- MIC50 (Enterobacteriaceae [2]): 0.12 µg/mL (≈ 0.401 µM)
- MIC90 (Enterobacteriaceae [2]): 0.5 µg/mL (≈ 1.67 µM)
- MIC50 (Enterobacteriaceae [3]): 0.12 µg/mL (≈ 0.401 µM)
- MIC90 (Enterobacteriaceae [3]): 1 µg/mL (≈ 3.34 µM)
- Activity (Enterobacteriaceae [12]): 64.4%
- Activity (Enterobacteriaceae [13]): 100%
- Activity (Enterobacteriaceae [24]): 61.4%
- Activity (Enterobacteriaceae [25]): 100%
- Activity (Enterobacteriaceae [26]): 83.3%

Structure (SMILES): C[C@H]1COc2c(N3CCN(C)CC3)c(F)cc3c(=O)c(C(=O)O)cn1c23.C[C@H]1COc2c(N3CCN(C)CC3)c(F)cc3c(=O)c(C(=O)O)cn1c23.O [LEVOFLOXACIN]
- MIC50 (Enterobacteriaceae [1]): ≤ 0.03 µg/mL
- MIC90 (Enterobacteriaceae [1]): 8 µg/mL
- MIC50 (Enterobacteriaceae [2]): 8 µg/mL
- MIC90 (Enterobacteriaceae [2]): 32 µg/mL
- MIC50 (Enterobacteriaceae [3]): 16 µg/mL
- MIC90 (Enterobacteriaceae [3]): 64 µg/mL
- Activity (Enterobacteriaceae [7]): 85.4%
- Activity (Enterobacteriaceae [8]): 20%
- Activity (Enterobacteriaceae [27]): 21.9%
- Activity (Enterobacteriaceae [18]): 75.2%
- Activity (Enterobacteriaceae [19]): 14.3%
- Activity (Enterobacteriaceae [20]): 23.8%

Structure (SMILES): C[C@@H](O)[C@H]1C(=O)N2C(C(=O)O)=C(S[C@@H]3CN[C@H](C(=O)N(C)C)C3)[C@H](C)[C@H]12 [MEROPENEM]
- MIC50 (Klebsiella pneumoniae): ≤ 0.03 µg/mL
- MIC90 (Klebsiella pneumoniae): 0.06 µg/mL (≈ 0.156 µM)
- MIC50 (Enterobacteriaceae [2]): ≤ 0.03 µg/mL
- MIC90 (Enterobacteriaceae [2]): 0.12 µg/mL (≈ 0.313 µM)
- MIC50 (Enterobacteriaceae [3]): 0.03 µg/mL (≈ 0.0782 µM)
- MIC90 (Enterobacteriaceae [3]): 0.25 µg/mL (≈ 0.652 µM)
- Activity (Enterobacteriaceae [9]): 85%
- Activity (Enterobacteriaceae [10]): 100%
- Activity (Enterobacteriaceae [11]): 91.7%
- Activity (Enterobacteriaceae [21]): 77.9%
- Activity (Enterobacteriaceae [22]): 62.5%
- Activity (Enterobacteriaceae [23]): 81.3%
